From patent US9210928B2, “Plant development control composition” (Syngenta Crop Protection, LLC, priority 2008, dated 2015)
Entries after “also recorded” stand apart in the source; their conditions may differ.

Target: T1, LeNCED1 (Solanum lycopersicum, UniProt O24023)
T1 construct: made in house; host or cells: E. coli Rosetta (DE3); crude cell-free extract
Assay: In vitro NCED enzyme assay (recombinant LeNCED1 cell-free extract, HPLC, 9′-cis-neoxanthin substrate)
Type: biochemical, tomato
Procedure: In vitro NCED enzyme assay—We over-expressed LeNCED1 in E. coli, as an N-terminal His6-fusion protein (supplemental methods). Cell-free extract containing recombinant LeNCED1 was prepared in 100 mM bis-tris buffer (pH 6.7). 15 μl extract was pre-activated by addition of iron(II) sulphate (20 mM, 1 μl) and ascorbic acid (20 mM, 1 μl) on ice for 2 min, prior to use. This aliquot of enzyme was then added to an assay (150 μl total volume) containing 100 mM bis-tris buffer (pH 6.7), 0.05% v/v Triton X-100, 1.0 mg/ml catalase, and 3 μg 9′-cis-neoxanthin. The 9′-cis-neoxanthin substrate was prepared as described in supplemental methods. The enzyme assay was incubated for 15 min in the dark at 20° C. Water (700 μl) was then added, and the products extracted with ethyl acetate (3×1 ml). The organic solvent was removed at reduced pressure, the residue was dissolved in methanol (200 μl), and then 100 μl was injected onto a Phenomenex C18 reverse phase HPLC column, and a gradient of 5-10% methanol in acetonitrile/0.05% triethylamine was applied at 0.5 ml/min over 20 min, detecting at 440 nm. NCED inhibition assays contained 1-100 μM inhibitor; inhibition was calculated from the product formation after 15 min, compared to a control assay with no inhibitor present.
For the production of cell-free extracts of LeCCD1a and LeNCED1, cultures were grown to an OD of 0.6 at 37° C., then isopropyl β-D-1-thiogalactopyranoside (IPTG) was added to 0.2 mM and the cultures grown overnight at 20° C. The cells (200 ml cultures) were harvested by centrifugation (5000 rpm, 10 min) and the pellet re-suspended in 4 ml PBS, 0.1% Triton-X 100. Lysozyme was added to a final concentration of 25 μg ml^−1 and the solution incubated at room temperature for 15 min before sonication (3×30 s at 18Ω) on ice. The lysate was then centrifuged (13000 rpm, 15 min, 4° C.) and the supernatant used for the assay.
Specificity of inhibition in vitro for tomato genes LeNCED1 and LeCCD1a—In order to screen the inhibitors against enzymes which cleave carotenoids at the 9,10 position, we used the recombinant tomato LeCCD1a protein (44), because this type of enzyme can be studied using an in vitro colourimetric assay with β-apo-8′-carotenal as substrate (37). To establish the specificity of the inhibitors, they were also tested against the tomato LeNCED1 recombinant protein which cleaves 9-cis carotenoids at the 11,12 position (45). For this enzyme, the cleavage reaction was monitored by C18 reverse phase HPLC, using 9′-cis-neoxanthin as substrate.

T1 sequence (O24023 17-605): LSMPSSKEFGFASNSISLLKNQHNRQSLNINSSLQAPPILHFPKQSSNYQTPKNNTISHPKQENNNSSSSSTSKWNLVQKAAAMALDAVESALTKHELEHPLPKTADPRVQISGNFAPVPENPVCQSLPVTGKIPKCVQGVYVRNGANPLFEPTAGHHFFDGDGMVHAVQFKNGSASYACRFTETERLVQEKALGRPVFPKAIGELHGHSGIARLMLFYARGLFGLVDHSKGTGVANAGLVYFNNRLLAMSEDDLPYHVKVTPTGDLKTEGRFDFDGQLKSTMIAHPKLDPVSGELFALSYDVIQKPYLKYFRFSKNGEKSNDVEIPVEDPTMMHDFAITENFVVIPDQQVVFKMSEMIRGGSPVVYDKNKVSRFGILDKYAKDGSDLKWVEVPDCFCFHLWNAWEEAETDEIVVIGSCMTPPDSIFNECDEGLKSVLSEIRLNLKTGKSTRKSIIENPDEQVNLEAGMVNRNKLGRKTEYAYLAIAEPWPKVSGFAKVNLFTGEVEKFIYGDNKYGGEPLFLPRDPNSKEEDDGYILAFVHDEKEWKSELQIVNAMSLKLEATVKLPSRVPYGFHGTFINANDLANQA

SMILES	inhibition of LeNCED1 in vitro (in words)	LeNCED1 (11,12) Inhibition @ 100 μM (%) (100 μM inhibitor, E. coli cell extract with recombinant CCD)
COc1ccc(C(=O)N(O)Cc2ccc(F)cc2)cc1 [Compound F2, N-(4-fluorobenzyl)-4-methoxybenzoyl hydroxamic acid]	little or no inhibition of LeNCED1	
COc1ccc(C(=O)N(O)Cc2ccccc2)cc1 [Compound F1, N-benzyl-4-methoxybenzoyl hydroxamic acid]	little or no inhibition of LeNCED1; also recorded: no inhibition of LeNCED 1 was detected	
COc1ccc(C(=O)N(O)Cc2ccccc2)cc1OC [Compound F3, N-benzyl-3,4-dimethoxybenzoyl hydroxamic acid]		2
